According to PubChem BioAssay AID248 (DTP/NCI, 2004):
Where “and” joins values, the source holds several entries; their conditions need not be identical. Identical values can stand only once. Toxic doses and inconclusive results are not listed. No stated cut-off is given here; in the data, active means T/C of 150% or more; inactive means T/C below 125%.

System: L1210 leukemia ip in BDF1 mice, survival T/C
Test: NCI In Vivo Anticancer Drug Screen. Data for tumor model L1210 Leukemia (intraperitoneal) in B6D2F1 (BDF1) mice
Details: endpoint: mean survival time, higher = longer survival
How it was run: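 Transplanted-tumor mice were given test agent; controls received vehicle only. Survival readings from the two groups were divided (treated over control).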

[1] = dose: 50.0 mg/kg/injection, schedule: Q04DX003 (ip), vehicle: saline with Tween-80
[2] = dose: 100.0 mg/kg/injection, schedule: Q01DX009 (ip), vehicle: saline with Tween-80
[3] = dose: 100.0 mg/kg/injection, schedule: Q04DX002 (ip), vehicle: saline with Tween-80
[4] = dose: 100.0 mg/kg/injection, schedule: Q04DX003 (ip), vehicle: saline with Tween-80
[5] = dose: 200.0 mg/kg/injection, schedule: Q01DX009 (ip), vehicle: saline with Tween-80
[6] = dose: 200.0 mg/kg/injection, schedule: Q04DX002 (ip), vehicle: saline with Tween-80
[7] = dose: 200.0 mg/kg/injection, schedule: Q04DX003 (ip), vehicle: saline with Tween-80
[8] = dose: 400.0 mg/kg/injection, schedule: Q01DX009 (ip), vehicle: saline with Tween-80
[9] = dose: 400.0 mg/kg/injection, schedule: Q04DX002 (ip), vehicle: saline with Tween-80
[10] = dose: 400.0 mg/kg/injection, schedule: Q04DX003 (ip), vehicle: saline with Tween-80
[11] = dose: 100.0 mg/kg/injection, schedule: Q01DX001 (ip), vehicle: Klucel (hydroxypropylcellulose) (HPC)
[12] = dose: 100.0 mg/kg/injection, schedule: Q04DX003 (ip), vehicle: Klucel (hydroxypropylcellulose) (HPC)
[13] = dose: 200.0 mg/kg/injection, schedule: Q01DX001 (ip), vehicle: Klucel (hydroxypropylcellulose) (HPC)
[14] = dose: 200.0 mg/kg/injection, schedule: Q04DX003 (ip), vehicle: Klucel (hydroxypropylcellulose) (HPC)
[15] = dose: 400.0 mg/kg/injection, schedule: Q01DX001 (ip), vehicle: Klucel (hydroxypropylcellulose) (HPC)
[16] = dose: 400.0 mg/kg/injection, schedule: Q04DX003 (ip), vehicle: Klucel (hydroxypropylcellulose) (HPC)
[17] = dose: 100.0 mg/kg/injection, schedule: Q01DX001 (ip), vehicle: saline
[18] = dose: 200.0 mg/kg/injection, schedule: Q01DX001 (ip), vehicle: saline
[19] = dose: 400.0 mg/kg/injection, schedule: Q01DX001 (ip), vehicle: saline
[20] = dose: 100.0 mg/kg/injection, schedule: Q01DX009 (ip), vehicle: Klucel (hydroxypropylcellulose) (HPC)
[21] = dose: 200.0 mg/kg/injection, schedule: Q01DX009 (ip), vehicle: Klucel (hydroxypropylcellulose) (HPC)
[22] = dose: 25.0 mg/kg/injection, schedule: Q04DX003 (ip), vehicle: saline with Tween-80
[23] = dose: 100.0 mg/kg/injection, schedule: Q04DX002 (ip), vehicle: Klucel (hydroxypropylcellulose) (HPC)
[24] = dose: 200.0 mg/kg/injection, schedule: Q04DX002 (ip), vehicle: Klucel (hydroxypropylcellulose) (HPC)
[25] = dose: 400.0 mg/kg/injection, schedule: Q04DX002 (ip), vehicle: Klucel (hydroxypropylcellulose) (HPC)

Measured: T/C

Cc1ccc(N=Nc2ccc(C)cc2NC(=O)c2ccc(Cl)cc2)cc1
inactive: dose: 50.0 mg/kg/injection, schedule: Q01DX001 (ip), vehicle: saline with Tween-80 100 % of control | [1] 90 % of control | dose: 100.0 mg/kg/injection, schedule: Q01DX001 (ip), vehicle: saline with Tween-80 90 % of control | [2] 93 % of control and 94 % of control | [3] 94 % of control and 90 % of control | [4] 93 % of control | [5] 95 % of control and 97 % of control | [6] 93 % of control and 91 % of control | [7] 93 % of control | [8] 90 % of control and 92 % of control | [9] 87 % of control and 89 % of control | [10] 89 % of control and 90 % of control

CCCC1(CCC)c2ccccc2C(=O)c2ccccc21
inactive: [11] 105 % of control | [12] 100 % of control | [13] 96 % of control | [14] 96 % of control | [15] 105 % of control | [16] 95 % of control

CC(C)=CCC(=O)OC(CC=C(C)C)(c1ccccc1)C(C)CN(C)C (stereo not given)
inactive: dose: 25.0 mg/kg/injection, schedule: Q01DX009 (ip), vehicle: saline 100 % of control | dose: 50.0 mg/kg/injection, schedule: Q01DX009 (ip), vehicle: saline 90 % of control | dose: 100.0 mg/kg/injection, schedule: Q01DX009 (ip), vehicle: saline 89 % of control

COC(=O)c1cc([N+](=O)[O-])c(C)s1
inactive: [17] 100 % of control | [18] 100 % of control | [19] 96 % of control

CCNC(=S)Nc1ccc(OCC)cc1
inactive: [3] 89 % of control | [6] 95 % of control | [9] 100 % of control

CC[N+](C)(C)CCCOC(=O)C1C2CC3CC(C2)CC1C3 (stereo not given)
inactive: dose: 25.0 mg/kg/injection, schedule: Q04DX002 (ip), vehicle: saline 88 % of control | dose: 50.0 mg/kg/injection, schedule: Q04DX002 (ip), vehicle: saline 98 % of control

C=CCc1cnc(SCc2ccccc2)[nH]c1=O
inactive: dose: 100.0 mg/kg/injection, schedule: Q01DX001 (ip), vehicle: gum acacia 101 % of control | dose: 200.0 mg/kg/injection, schedule: Q01DX001 (ip), vehicle: gum acacia 91 % of control | dose: 400.0 mg/kg/injection, schedule: Q01DX001 (ip), vehicle: gum acacia 94 % of control

Cc1cccc(C(=O)CC(O)(C(F)(F)F)C(F)(F)F)c1
inactive: [1] 98 % of control | [4] 100 % of control | [7] 91 % of control | [10] 102 % of control

CCCCCCOC(=O)Nc1ccc(S(=O)(=O)N(C)C)cc1
inactive: [17] 103 % of control | [18] 108 % of control | [19] 102 % of control

Cc1ccc(S(=O)(=O)OCC(OS(=O)(=O)c2ccc(C)cc2)C2OCOC(COS(=O)(=O)c3ccc(C)cc3)C2OS(=O)(=O)c2ccc(C)cc2)cc1 (stereo not given)
inactive: [4] 94 % of control | [7] 87 % of control | [10] 100 % of control

CN(C)c1ccc(C(C#N)C(C#N)c2ccccc2)cc1 (stereo not given)
inactive: dose: 50.0 mg/kg/injection, schedule: Q01DX001 (ip), vehicle: Klucel (hydroxypropylcellulose) (HPC) 88 % of control | [11] 88 % of control | [13] 88 % of control

CN(C)c1ccc2c(c1)C(Br)c1ccccc1-2 (stereo not given)
inactive: [20] 106 % of control | [12] 94 % of control | [21] 107 % of control | [14] 96 % of control | [16] 97 % of control

COC(=O)Nc1ccccc1
inactive: [11] 97 % of control | dose: 100.0 mg/kg/injection, schedule: Q04DX002 (ip), vehicle: gum acacia 113 % of control | [13] 98 % of control | dose: 200.0 mg/kg/injection, schedule: Q04DX002 (ip), vehicle: gum acacia 100 % of control | [15] 101 % of control | dose: 400.0 mg/kg/injection, schedule: Q04DX002 (ip), vehicle: gum acacia 103 % of control

CCOC(=O)c1cc2ccccc2oc1=O
inactive: dose: 25.0 mg/kg/injection, schedule: Q01DX009 (ip), vehicle: saline with Tween-80 102 % of control | [22] 103 % of control | dose: 50.0 mg/kg/injection, schedule: Q01DX001 (ip), vehicle: other 95 % of control | dose: 50.0 mg/kg/injection, schedule: Q01DX009 (ip), vehicle: saline with Tween-80 98 % of control | [1] 98 % of control and 89 % of control | [2] 94 % of control | [4] 100 % of control and 103 % of control

NCCB(O)O
inactive: dose: 100.0 mg/kg/injection, schedule: Q04DX003 (ip), vehicle: saline 95 % of control | dose: 200.0 mg/kg/injection, schedule: Q04DX003 (ip), vehicle: saline 93 % of control | dose: 400.0 mg/kg/injection, schedule: Q04DX003 (ip), vehicle: saline 98 % of control

O=S(=O)(O)c1ccc2cc(O)c(O)cc2c1
inactive: [23] 91 % of control | [24] 95 % of control | [25] 95 % of control

NC(=O)NC1OC(COC(=O)c2ccccc2)C(OC(=O)c2ccccc2)C1OC(=O)c1ccccc1 (stereo not given)
inactive: [2] 89 % of control | [4] 92 % of control | [5] 90 % of control | [7] 94 % of control | [8] 89 % of control | [10] 94 % of control

Nc1nnnn1-c1ccccc1
inactive: [23] 102 % of control | [24] 102 % of control | [25] 91 % of control

O=C1CC(=Nc2ccc([N+](=O)[O-])cc2)NN1c1c(Cl)cc(Cl)cc1Cl
inactive: [2] 97 % of control | [5] 101 % of control | [8] 90 % of control

CCCCCCCCCCCc1cc(=O)n(-c2ccccc2)n1C
inactive: dose: 12.5 mg/kg/injection, schedule: Q04DX003 (ip), vehicle: saline with Tween-80 92 % of control | [22] 98 % of control | [1] 95 % of control | [7] 102 % of control

O=C(O)c1c2ccc(Cl)cc2nc2[nH]c(=O)[nH]c(=O)c12
inactive: [23] 108 % of control | [24] 120 % of control | [25] 113 % of control

O=C1OC(=O)c2ccc([N+](=O)[O-])c3c(C(=O)O)ccc1c23
inactive: dose: 50.0 mg/kg/injection, schedule: Q01DX001 (ip), vehicle: saline 101 % of control | [17] 104 % of control | [18] 104 % of control | [19] 104 % of control

C(#CCOc1ccccc1)COc1ccccc1
inactive: [4] 97 % of control | [7] 97 % of control | [10] 97 % of control

COC(=O)c1ccccc1Cc1cccc2c(Cl)cccc12
inactive: [11] 97 % of control | [13] 98 % of control | [15] 106 % of control

CCOC(=O)c1cnc(SC)nc1Nc1cccc([N+](=O)[O-])c1
inactive: [20] 110 % of control | [12] 97 % of control | [21] 97 % of control | [14] 98 % of control | dose: 400.0 mg/kg/injection, schedule: Q01DX009 (ip), vehicle: Klucel (hydroxypropylcellulose) (HPC) 95 % of control | [16] 95 % of control

COC(=O)c1cc(C)c(N)cc1C
inactive: [17] 96 % of control | [18] 104 % of control | [19] 102 % of control

O=C(NCCc1ccc([N+](=O)[O-])cc1)c1ccc(S(=O)(=O)F)cc1
inactive: [11] 103 % of control | [13] 94 % of control | [15] 103 % of control

Cc1cccc(NC(=O)c2ccc(Cl)cc2Cl)n1 (tested in a mixture with another compound)
inactive: [23] 103 % of control | [24] 103 % of control | [25] 92 % of control

CCCCCCOc1ccc(/C=N\N=C\c2ccc(OCCCCCC)cc2)cc1
inactive: [2] 92 % of control | [5] 89 % of control | [8] 91 % of control

CC(C)/C=N/N(C)C(=O)Nc1cccc2ccccc12
inactive: dose: 50.0 mg/kg/injection, schedule: Q01DX001 (ip), vehicle: carboxymethylcellulose (CMC) 97 % of control | dose: 100.0 mg/kg/injection, schedule: Q01DX001 (ip), vehicle: carboxymethylcellulose (CMC) 94 % of control | dose: 200.0 mg/kg/injection, schedule: Q01DX001 (ip), vehicle: carboxymethylcellulose (CMC) 94 % of control | dose: 400.0 mg/kg/injection, schedule: Q01DX001 (ip), vehicle: carboxymethylcellulose (CMC) 90 % of control
